Results on 9 molecules are retold here after PubChem BioAssay (NCI).

What all share (assay): NCI tumour cell line growth inhibition, 48 h
The subject of assay [1] is CAKI-1 renal.
The subject of assay [2] is MOLT-4 leukemia.
Assay [3] relates to COLO 205 colon.
For assay [4], the system named is KM12 colon.
For assay [5], the system named is HL-60(TB) leukemia.
In assay [6] the test system is OVCAR-4 ovarian.
Assay [7] concerns RXF 393 renal.
Assay [8] deals with UO-31 renal.
The subject of assay [9] is EKVX NSCLC.
Assay [10] deals with ACHN renal.

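Where inhibition never reached the appropriate level, the endpoint shown equals the highest concentration tested. Otherwise, values were interpolated linearly from a five-concentration, 48-hour dose response in 96-well plates. GI50 is the concentration that inhibits growth by half. TGI: total growth inhibition.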

Consider `CC(C)=CCCc1c(C)ccc2c1C(=O)C(=O)C(C(C)C)=C2`, for which the TGI in assay [1] was 7.79 µM; in assay [2] it was 20 µM; in assay [3], more than 22 µM; in assay [4], more than 22 µM; in [5], 5.03 µM; in assay [6], 8.81 µM. Besides, the TGI in assay [7] was 6.79 µM; in [8], more than 22 µM; in assay [9] it was more than 22 µM; in assay [10] it was 6.84 µM.

For `O=C1c2ccccc2C(=O)c2sc(Nc3cccc(Cl)c3)nc21`, the TGI was found to be 4.97 µM in [1]; 3.05 µM in [2]; 7.68 µM in assay [3]; 4.1 µM in assay [4]; 0.444 µM in [5]; 2.72 µM in assay [6]. In addition, the TGI amounted to 3.19 µM in assay [7], 4 µM in [8], 4.89 µM in assay [9] and 3.03 µM in assay [10].

Take `COc1cc(C(=O)/C=C/c2sc(Cl)nc2Cl)cc(OC)c1OC`: the GI50 in assay [1] was 1.61 µM; in [2], 2.21 µM; in [3], 1.72 µM; in assay [4], 1.92 µM; in [5] it was 1.82 µM; in assay [6], 1.77 µM. Moreover, the GI50 is 1.7 µM in assay [7], 1.44 µM in assay [8], 1.67 µM in [9] and 1.74 µM in assay [10]. In addition, the TGI in assay [1] was determined as 2.99 µM; in assay [2] it was 5.49 µM; in [3] it was 3.9 µM; in [4] it was 3.84 µM; in [5] it was 4.45 µM; in assay [6], 3.19 µM. In addition, the TGI in assay [7] is 3.12 µM; in [8] it was 2.75 µM; in assay [9], 3.12 µM; in assay [10], 3.12 µM.

Consider `O=C(/C=C/c1ccccc1Cl)c1ccc(Cl)c(Cl)c1`, for which the TGI is 30.9 µM in [1]; 61.4 µM in [2]; more than 100 µM in assay [3]; 29.7 µM in [4]; 60.7 µM in assay [5]; 25.5 µM in assay [6]. Further, the TGI in assay [7] is 26 µM; in assay [8], 30.9 µM; in [9] it was 37.4 µM; in assay [10] it was 28.6 µM.

Turning to `Cc1nc2c(nc1C)C(=O)c1ccccc1C2=O`, the TGI in assay [1] was 61.9 µM; in [2], 48 µM; in [3], 5.57 µM; in assay [4], 35.3 µM; in [5], 13.7 µM; in assay [6] it was 14.1 µM. Further, the TGI worked out at 53.9 µM in assay [7], 36.2 µM in assay [8], 41.5 µM in assay [9] and 35.4 µM in assay [10].

Take `COc1cc2nc(C)nc(N[C@H](C)c3cc(N)cc(C(F)(F)F)c3)c2cc1O[C@H]1CCOC1`: the GI50 is 7.14 µM in assay [1]; 12.3 µM in assay [2]; 15.8 µM in assay [3]; 14.9 µM in assay [4]; 14 µM in assay [5]; 17 µM in assay [6]. The GI50 in assay [7] was 5.88 µM; in assay [8], 2.28 µM; in assay [9], 11.1 µM; in assay [10] it was 11.6 µM. The TGI in [1] was determined as 24.1 µM; in assay [2], 41.5 µM; in [3], 33.4 µM; in assay [4] it was 30 µM; in assay [5], 39.2 µM; in assay [6], 55.1 µM. For the same molecule, the TGI turned out to be 22 µM in [7], 17.3 µM in [8], 26.5 µM in assay [9] and 23.9 µM in assay [10].

Take `COc1cc2c(c(OC)c1O)C(=O)C(OC)C(c1ccc(O)c(O)c1)O2` (stereo not given): the GI50 in assay [1] is 0.336 µM; in assay [2], 0.482 µM; in assay [3], 23.5 µM; in assay [4], 0.515 µM; in [5], 0.072 µM; in assay [6], more than 100 µM. Further, the GI50 in assay [7] is 0.305 µM; in assay [8], 0.53 µM; in [9] it was 15.2 µM; in assay [10], 0.662 µM. For the same molecule, the TGI in assay [1] is more than 100 µM; in [2] it was more than 100 µM; in [3], more than 82.8 µM; in [4] it was more than 100 µM; in [5], 3.62 µM; in assay [6], more than 100 µM. The TGI in assay [7], in assay [8], in assay [9] and in assay [10] was more than 100 µM each time.

`COc1ccc(-c2cc(-c3ccc(Nc4nc(Nc5ccccc5)nc(Nc5ccc(Cl)cc5)n4)cc3)nc(N)c2C#N)cc1`: the GI50 was 0.705 µM in assay [1]; 0.958 µM in [2]; 1 µM in assay [3]; 0.961 µM in assay [4]; 1.15 µM in [5]; 1.06 µM in assay [6]. The GI50 in assay [7] was 0.654 µM; in assay [8] it was 0.72 µM; in assay [9], 1.44 µM; in [10], 0.885 µM. Further, the TGI in assay [1] is 1.49 µM; in [2], more than 50 µM; in assay [3], 2.15 µM; in [4] it was 2.14 µM; in [5] it was 6.41 µM; in assay [6], 3.2 µM. Moreover, the TGI in [7] is 1.89 µM; in assay [8] it was 1.49 µM; in assay [9] it was more than 22.9 µM; in [10] it was 1.77 µM.

As to `COc1cc2nc(-c3ccc(C(F)(F)F)cc3)cc(OCCCN3CCC(O)CC3)c2cc1OC`, the GI50 was 0.376 µM in assay [1]; 3.27 µM in [2]; 0.456 µM in [3]; 6.87 µM in assay [4]; 13.9 µM in assay [5]; 9.14 µM in assay [6]. Also, the GI50 in assay [7] was 1.34 µM; in assay [8], 2.71 µM; in assay [9], 1.03 µM; in assay [10] it was 3.18 µM. In addition, the TGI in assay [1] turned out to be 13.1 µM; in assay [2], 18.4 µM; in [3], 12.1 µM; in assay [4], 24 µM; in assay [5], 31.9 µM; in assay [6] it was 22 µM. In addition, the TGI in [7] stood at 7.53 µM; in [8], 14.6 µM; in assay [9], 21.7 µM; in assay [10] it was 16.7 µM.
